Source: US9126060B2, “Cosmetic use of geranylgeranyl-2-propanol” (SEDERMA, priority 2010, dated 2015)

Experiments:
fibroblasts (FHN) = assay: Intracellular peroxide level (DCFH-DA probe) in fibroblasts after SIPS; assay type: cell-based, human; details: 120 ppm
Procedure: Principle: Fibroblasts at confluence contacted or not with the GGP for several days, are subjected to oxidative stress by hydrogen peroxide in the presence or absence of the GGP. This stress is intended to induce premature senescence in cells.
After this initial stress, the cells were detached from the support and returned to culture at low density until confluence. They are then contacted or not with the compound of the invention for 24 hours. At this stage, each set of cultures (with or without the tested compounds) is divided into 2 lots. A first batch (not stressed) is evaluated directly for its concentration of intracellular peroxides (using the probe DCFH-DA). Simultaneously, the other batch (stressed) undergoes a second stress by hydrogen peroxide (weaker than the first) just before being evaluated in the same way regarding the concentration of intracellular peroxides.
The amount of fluorescence measured with this probe is directly proportional to the amount of peroxides present in the cells.

human dermal fibroblasts = assay: Senescence associated β-galactosidase activity in fibroblasts after oxidising stress (FDG fluorimetry); assay type: cell-based; details: 120 ppm; positive control
Procedure: Principle: Proliferative human dermal fibroblasts were contacted or not with the GGP for 72 hours in a growth medium. After this first incubation, the cells were subjected for 5 days to an oxidative stress daily, one hour each, in a basic medium, common to all cultures. This stress is known to create a SIPS and to induce a strong increase in β-galactosidase activity in the stressed culture compared to an unstressed culture. Between two stress cells are returned to the growth medium with or without the substance tested. After the fifth stress, β-galactosidase activity is evaluated.
Evaluation of β-galactosidase activity is done after fixing the layers. They are put in contact with a substrate of β-galactosidase nonfluorescent FDG (fluorescein di-β-galactopyranoside), which will release a fluorescent compound upon hydrolysis by β-galactosidase. The emitted fluorescence is quantified in a fluorometer. It will increase with the amount of senescent cells present in culture. The relative activity of β-galactosidase thus found is 2974+/−957 UFA/million cells in a proliferative culture and increases by a factor 5 (p<0.01) in a culture little to not proliferative.

presenescent fibroblasts = assay: Mitochondrial membrane potential of presenescent fibroblasts (dye ratio λ520/λ590); assay type: cell-based; details: 120 ppm
Excerpt: It is possible to measure the membrane potential through a specific membrane dye. Depending on the level of the membrane potential, this dye is rather present as monomer (emission fluorescence at 520 nm) or rather in the multimetric form (fluorescence emission at 590 nm). High membrane potential promotes a multimetric form.
The ratio λ520/λ590 varies inversely with the membrane potential. The lower the ratio is, the higher the membrane potential is. The increase in the ratio thus reflects a decrease in membrane potential. The ratio λ520/λ590 for young and proliferating cells is 2.97+/−0.17.
[…] After this period, the membrane potential of half of the cultures was measured.
The other half of the cultures underwent an oxidative stress (hydrogen peroxide) before measuring their membrane potential.

[1] = ORAC test (Oxygen-Radical Absorbance Capacity): fluorescein degradation by peroxyl radicals; assay type: biochemical; details: positive control, 10μ
Excerpt: Principle: the ORAC test (“Oxygen-Radical Absorbance Capacity”) measures degradation by the oxidative way of a fluorescent molecule (fluorescein). Degradation of fluorescein by peroxyl radicals generated by AAPH (2,2′-azobis (2-amidinopropane) dichloride) induces a decrease in fluorescence measured by a spectrofluorometer during a degradation kinetic.
An antioxidant protects this fluorescein against this radical degradation. The decrease in fluorescence will be smaller and slower in the presence of the antioxidant than in its absence. The comparison between the parameters of the two kinetics makes it possible to calculate a percentage of protection against free radical degradation.

human melanocytes = assay: Melanin content of human melanocytes; assay type: cell-based; details: 0.03%; positive control
Procedure: (§1) Principle: Human melanocytes are seeded and placed in contact with the GGP for 5 days. After incubation, the residual tyrosinase activity and total melanin content were measured in cell homogenates, and then divided by the number of cells (melanin) or to the protein amount (tyrosinase).

tyrosinase = biological target: T1, tyrosinase (Homo sapiens, UniProt P14679); assay: Residual tyrosinase activity in human melanocytes; assay type: cell-based; details: 0.03%; positive control
T1 construct: endogenous in cells; host or cells: human melanocytes
T1 sequence (P14679 19-529): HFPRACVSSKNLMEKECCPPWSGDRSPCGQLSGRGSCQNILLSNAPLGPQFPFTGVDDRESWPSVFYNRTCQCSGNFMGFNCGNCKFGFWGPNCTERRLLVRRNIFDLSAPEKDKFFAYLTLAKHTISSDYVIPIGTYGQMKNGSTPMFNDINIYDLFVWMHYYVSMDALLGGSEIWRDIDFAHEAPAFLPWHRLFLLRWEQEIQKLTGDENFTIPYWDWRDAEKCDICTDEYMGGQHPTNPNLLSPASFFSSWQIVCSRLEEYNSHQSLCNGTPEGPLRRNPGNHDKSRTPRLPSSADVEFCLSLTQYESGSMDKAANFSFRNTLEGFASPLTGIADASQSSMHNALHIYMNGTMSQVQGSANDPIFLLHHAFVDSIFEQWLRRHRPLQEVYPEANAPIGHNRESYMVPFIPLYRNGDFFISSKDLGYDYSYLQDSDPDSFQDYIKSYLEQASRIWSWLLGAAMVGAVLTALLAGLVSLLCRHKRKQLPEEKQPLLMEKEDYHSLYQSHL
Procedure: as §1

collagen I = assay: Collagen I synthesis in presenescent fibroblasts (immunofluorescence, image analysis); assay type: cell-based, human; details: 10^−6%; positive control
Procedure: Principle: The collagen I synthesis was monitored in pre-senescent human dermal fibroblasts. These cells were cultured for 11 days with the GGP in a growth medium. Following this incubation, the cell layers were fixed and labeled by immunofluorescence, to visualize the network of collagen I and to quantify by image analysis on photographs. In parallel, quantification was performed on proliferating cells.

hyaluronic acid = assay: Hyaluronic acid synthesis in human fibroblasts; assay type: cell-based; details: 10^−6%; positive control
Procedure: Principle: Human dermal fibroblasts were grown in plate for 24 hours. The cells are then placed in contact or not with GGP for 24 hours. Culture supernatants were collected and assayed for the amount of hyaluronic acid (HA) is then divided by the number of cells present on the layer. TGF-β1 is used as a positive control.

[2] = SIPS fibroblasts subjected to a second oxidant stress

With `Cc1c(C)c2c(c(C)c1O)CCC(C)(C(=O)O)O2` (stereo not drawn) [Trolox, reference compound] the “% Change/Control of endogen peroxides” value (fibroblasts (FHN); [2]) was −85%; p < 0.01, the Endogen peroxides (fibroblasts (FHN); [2]) was 158 +/− 7 UFA/million of cells and the “% Change/Control of endogen peroxides” value (fibroblasts (FHN); after SIPS, not stressed again) was −43%; p < 0.01. The Endogen peroxides (fibroblasts (FHN); after SIPS, not stressed again) was 57.5 +/− 3.8 UFA/million of cells, the “Change with regard to control (β-galactosidase)” value (human dermal fibroblasts) was “Positive control: Trolox 120 ppm = −45% (p < 0.05)” and the “% of protection of the respiration potential” value (presenescent fibroblasts; no stress) was “+44%; nsd”. For the same compound, the “ΔΨ loss with regard to non stressed young cells” value (presenescent fibroblasts; one week, no stress) was 0.80 +/− 0.52, the “Improvement of the respiration potential” value (presenescent fibroblasts; with oxidative stress) was “+43%; p < 0.05” and the “ΔΨ loss with regard to non stressed young cells” value (presenescent fibroblasts; with oxidative stress (hydrogen peroxide)) was 3.18 +/− 1.16. For the same compound, the “Change with regard to non stressed young cells” value (presenescent fibroblasts; with oxidative stress, control −100%) was −57% and the “% of protection” value [1] was “Positive control = Trolox 10μ = 94% (p < 0.01)”.
With `OC[C@H]1O[C@@H](Oc2ccc(O)cc2)[C@H](O)[C@@H](O)[C@@H]1O` [Arbutine, reference compound] the “Change (%) of melanin content vs control” value (human melanocytes) was −40% and the “Change (%) of tyrosinase activity vs control” value (tyrosinase) was −33%.
For “TGF-β: TGF-β1 is used as a positive control [reference compound]”, the “collagen I synthesis, factor vs control” value (collagen I) was “Positive control: TGF-β at 10^−6%: ×8.3 times” and the “% of change of hyaluronic acid vs control” value (hyaluronic acid) was “Positive control: TGF-β1 à 10^−6%: +206% (p < 0.01)”.
